“Also recorded” adds a separate entry of the source.
Assays:
[1] = system: influenza A(H1N1)pdm09 virus isolates with NA-I223V; type: cell-based
[2] = system: influenza A(H1N1)pdm09 virus isolates with NA-S247N; type: cell-based
[3] = system: influenza A(H1N1)pdm09 virus isolates with NA-I223V + S247N; type: cell-based
[4] = system: influenza A(H1N1)pdm09 virus isolates with NA-I223V + S247N; type: biochemical
[5] = system: influenza A(H1N1)pdm09 virus isolates with NA-S247N; type: biochemical
[6] = system: influenza A(H1N1)pdm09 virus isolates with NA-I223V; type: biochemical
[7] = read-out: NA inhibitors IC50, average ± SD

`O=C1c2c(O)c(=O)ccn2N([C@@H]2c3ccccc3SCc3c2ccc(F)c3F)[C@@H]2COCCN12` [baloxavir] was tested, and the “susceptibility to baloxavir” value [1] was “susceptible”, the “susceptibility to baloxavir” value [2] was “susceptible” and the “susceptibility to baloxavir” value [3] was “retained susceptibility; also recorded: susceptible”.

For `CCOC(=O)C1=C[C@@H](OC(CC)CC)[C@H](NC(C)=O)[C@@H](N)C1` [Oseltamivir, oseltamivir], the “susceptibility to antiviral drugs” value [4] was “reduced susceptibility”.

For `CCC(CC)[C@H](NC(C)=O)[C@@H]1[C@H](O)[C@@H](C(=O)O)C[C@H]1N=C(N)N` [Peramivir, peramivir], the “NA inhibitors IC50 fold change” value [5] was 0.19 ± 0.01 (3) fold, the IC50 [5, 7] was 0.19 nM and the “NA inhibitors IC50 fold change” value [6] was 0.08 ± 0.01 (1) fold. The IC50 [6, 7] was 0.08 nM, the “NA inhibitors IC50 fold change” value [4] was 0.29 ± 0.01 (4) fold and the IC50 [4, 7] was 0.29 nM.
